According to PubChem BioAssay (NCI):
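Tested at 5 concentrations; 48 h exposure; 96-well plates; endpoints linearly interpolated, else capped at highest concentration. GI50 marks 50% less growth. Definition used: TGI = concentration required for complete inhibition of growth.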

Experiments:
Experiment in all cases: DTP human tumour cell line panel, 48 h
OVCAR-4 ovarian = tested on: OVCAR-4 ovarian
ACHN renal = tested on: ACHN renal
HT29 colon = tested on: HT29 colon
RPMI-8226 leukemia = tested on: RPMI-8226 leukemia
LOX IMVI melanoma = tested on: LOX IMVI melanoma
A498 renal = tested on: A498 renal
T-47D breast = tested on: T-47D breast
PC-3 prostate = tested on: PC-3 prostate
KM12 colon = tested on: KM12 colon
UO-31 renal = tested on: UO-31 renal
U251 CNS = tested on: U251 CNS
786-0 renal = tested on: 786-0 renal
A549 NSCLC = tested on: A549 NSCLC
MCF7 breast = tested on: MCF7 breast
NCI-H522 lung = tested on: NCI-H522 lung
NCI/ADR-RES ovarian = tested on: NCI/ADR-RES ovarian
MDA-MB-435 = tested on: MDA-MB-435
M14 melanoma = tested on: M14 melanoma
NCI-H460 lung = tested on: NCI-H460 lung
OVCAR-8 ovarian = tested on: OVCAR-8 ovarian
SK-MEL-28 melanoma = tested on: SK-MEL-28 melanoma
K-562 leukemia = tested on: K-562 leukemia
HOP-62 NSCLC = tested on: HOP-62 NSCLC
RXF 393 renal = tested on: RXF 393 renal
SN12C renal = tested on: SN12C renal
SF-268 CNS = tested on: SF-268 CNS
HS 578T breast = tested on: HS 578T breast
HCT-15 colon = tested on: HCT-15 colon
NCI-H226 lung = tested on: NCI-H226 lung
OVCAR-5 ovarian = tested on: OVCAR-5 ovarian
SK-MEL-5 melanoma = tested on: SK-MEL-5 melanoma
SK-MEL-2 melanoma = tested on: SK-MEL-2 melanoma
NCI-H23 lung = tested on: NCI-H23 lung
BT-549 breast = tested on: BT-549 breast
UACC-62 melanoma = tested on: UACC-62 melanoma
SK-OV-3 ovarian = tested on: SK-OV-3 ovarian
MDA-MB-231 breast = tested on: MDA-MB-231 breast
CAKI-1 renal = tested on: CAKI-1 renal
CCRF-CEM leukemia = tested on: CCRF-CEM leukemia
HCT-116 colon = tested on: HCT-116 colon
SNB-75 CNS = tested on: SNB-75 CNS
COLO 205 colon = tested on: COLO 205 colon
HCC-2998 colon = tested on: HCC-2998 colon
SNB-19 CNS = tested on: SNB-19 CNS
EKVX NSCLC = tested on: EKVX NSCLC
SW-620 colon = tested on: SW-620 colon
TK-10 renal = tested on: TK-10 renal

With `C#Cc1nc(/C=C\CCCCCCC(=O)NO)cs1` the GI50 (OVCAR-4 ovarian) was 2.05 µM, the TGI (OVCAR-4 ovarian) was 5.77 µM and the GI50 (ACHN renal) was 2.33 µM. It also gave a TGI (ACHN renal) of 6.46 µM, a GI50 (HT29 colon) of 2.6 µM and a TGI (HT29 colon) of 7.5 µM. The GI50 (RPMI-8226 leukemia) was 1.54 µM, the TGI (RPMI-8226 leukemia) was 4.96 µM and the TGI (LOX IMVI melanoma) was 0.0231 µM. For the same compound, the GI50 (A498 renal) was 1.68 µM, the TGI (A498 renal) was 3.3 µM and the GI50 (T-47D breast) was 1.62 µM. For the same compound, the TGI (T-47D breast) was 4.24 µM, the GI50 (PC-3 prostate) was 3.41 µM and the TGI (PC-3 prostate) was 20.1 µM. It also gave a GI50 (KM12 colon) of 3.25 µM, a TGI (KM12 colon) of 11.8 µM and a GI50 (UO-31 renal) of 0.163 µM. The TGI (UO-31 renal) was 0.318 µM, the GI50 (U251 CNS) was 1.86 µM and the TGI (U251 CNS) was 3.96 µM. For the same compound, the GI50 (786-0 renal) was 0.376 µM, the TGI (786-0 renal) was 12.6 µM and the GI50 (A549 NSCLC) was 2.94 µM. It also gave a TGI (A549 NSCLC) of 11.4 µM, a GI50 (MCF7 breast) of 2.94 µM and a TGI (MCF7 breast) of over 100 µM. The GI50 (NCI-H522 lung) was 0.177 µM, the TGI (NCI-H522 lung) was 0.352 µM and the GI50 (NCI/ADR-RES ovarian) was 0.861 µM. The TGI (NCI/ADR-RES ovarian) was 5.83 µM, the GI50 (MDA-MB-435) was 2.75 µM and the TGI (MDA-MB-435) was 11.8 µM. The GI50 (M14 melanoma) was 3.65 µM, the TGI (M14 melanoma) was 19.9 µM and the GI50 (NCI-H460 lung) was 2.72 µM. It also gave a TGI (NCI-H460 lung) of 16.4 µM, a GI50 (OVCAR-8 ovarian) of 2 µM and a TGI (OVCAR-8 ovarian) of 8.77 µM. The GI50 (SK-MEL-28 melanoma) was 3.69 µM, the TGI (SK-MEL-28 melanoma) was 30.1 µM and the GI50 (K-562 leukemia) was 2.1 µM. It also gave a TGI (K-562 leukemia) of over 100 µM, a GI50 (HOP-62 NSCLC) of 2.67 µM and a TGI (HOP-62 NSCLC) of 11.4 µM. For the same compound, the GI50 (RXF 393 renal) was 1.72 µM, the TGI (RXF 393 renal) was 4.14 µM and the GI50 (SN12C renal) was 4.02 µM. It also gave a TGI (SN12C renal) of over 100 µM, a GI50 (SF-268 CNS) of 2.84 µM and a TGI (SF-268 CNS) of 7.64 µM. For the same compound, the GI50 (HS 578T breast) was 2 µM, the TGI (HS 578T breast) was 8.41 µM and the GI50 (HCT-15 colon) was 3 µM. The TGI (HCT-15 colon) was 13.4 µM, the GI50 (NCI-H226 lung) was 2.81 µM and the TGI (NCI-H226 lung) was 9.71 µM. For the same compound, the GI50 (OVCAR-5 ovarian) was 2.63 µM, the TGI (OVCAR-5 ovarian) was 11.5 µM and the GI50 (SK-MEL-5 melanoma) was 2.38 µM. For the same compound, the TGI (SK-MEL-5 melanoma) was 6.69 µM, the GI50 (SK-MEL-2 melanoma) was 2.72 µM and the TGI (SK-MEL-2 melanoma) was 8.53 µM. It also gave a GI50 (NCI-H23 lung) of 0.964 µM, a TGI (NCI-H23 lung) of 2.39 µM and a GI50 (BT-549 breast) of 4.53 µM. It also gave a TGI (BT-549 breast) of 42.5 µM, a GI50 (UACC-62 melanoma) of 1.35 µM and a TGI (UACC-62 melanoma) of 3.29 µM. It also gave a GI50 (SK-OV-3 ovarian) of 2.49 µM, a TGI (SK-OV-3 ovarian) of 7.44 µM and a GI50 (MDA-MB-231 breast) of 2.59 µM. It also gave a TGI (MDA-MB-231 breast) of 6.25 µM, a GI50 (CAKI-1 renal) of 1.82 µM and a TGI (CAKI-1 renal) of 4.27 µM. It also gave a GI50 (CCRF-CEM leukemia) of 0.329 µM, a TGI (CCRF-CEM leukemia) of 11.6 µM and a GI50 (HCT-116 colon) of 2.01 µM. It also gave a TGI (HCT-116 colon) of 7.74 µM, a GI50 (SNB-75 CNS) of 1.4 µM and a TGI (SNB-75 CNS) of 4.27 µM. The GI50 (COLO 205 colon) was 1.9 µM, the TGI (COLO 205 colon) was 3.82 µM and the GI50 (HCC-2998 colon) was 5.58 µM. For the same compound, the TGI (HCC-2998 colon) was 18.1 µM, the GI50 (SNB-19 CNS) was 3.99 µM and the TGI (SNB-19 CNS) was 23 µM. The GI50 (EKVX NSCLC) was 5.23 µM, the TGI (EKVX NSCLC) was over 100 µM and the GI50 (SW-620 colon) was 1.69 µM. It also gave a TGI (SW-620 colon) of 4.2 µM, a GI50 (TK-10 renal) of 1.68 µM and a TGI (TK-10 renal) of 6.36 µM.
